Experimental findings from PMC9168271, “Discovery of Novel Tetrahydro-β-carboline Containing Aminopeptidase N Inhibitors as Cancer Chemosensitizers” (Frontiers in Oncology, 2022) are described below.

A word on the IC50: it is the concentration at which inhibition is half-maximal. Read a high IC50 as lower potency.

SMILES strings stand for the structures.

For assay [1], the system named is CD13 (APN) expression in MDA-MB-231 cells. As to the kind of experiment: Flow cytometry of APN expression. Type of assay: cell-based, human. To be noted: 48 h. On the procedure:
(§1) The cells were seeded in 6-well plates (4 × 10^5 cells/well) and treated with tested compounds for 48 h. Then, cells were collected into 1.5 mL EP tubes, washed twice with PBS, and centrifuged at 2500rpm for 5minutes. Cells were resuspended with 100μlof PBS, then 2μL/tube of APN antibody was added, followed by incubation in dark for 30 minutes at 4°C. Then the cells were subjected to flow cytometry (FACSAria II, Becton-Dickinson) for the expression of APN.
A general note: In flow cytometry, cells or beads pass a laser one at a time.

The subject of assay [2] is CD13 (APN) expression in MDA-MB-468 cells. Briefly: Flow cytometry of APN expression. Type of assay: cell-based, human. To be noted: 48 h. The procedure: as §1
Assay [3] concerns MDA-MB-231 cells. Briefly: Cellular reactive oxygen species detection (DCFH-DA, flow cytometry). Type of assay: cell-based, human. To be noted: PTX alone, 48 h.
Assay [4] has as its system MDA-MB-468 cells. Described as above. Type of assay: cell-based, human. To be noted: PTX alone, 48 h.
Assay [5] relates to MDA-MB-231 cells. Briefly: MTT antiproliferative assay, chemotherapeutic drug with APN inhibitor. Type of assay: cell-based, human. To be noted: for antiproliferative activity of chemotherapeutic drugs in combination with APN inhibitor: with PTX, EPB, CTX, CBP, 48 h. From the text: (§2) The combination of APN inhibitor and paclitaxel (PTX), has been employed for the treatment of human breast cancer. In the current study, molecules with good APN inhibitory potency (D12, D14 and D16) were selected and used in combination with several chemotherapeutic drugs, such as PTX, EPB, cyclophosphamide (CTX) and carboplatin (CBP) to investigate its inhibitory effect on breast cancer. Human triple negative breast cancer cell (TNBC) lines MDA-MB-231 and MDA-MB-468 were utilized in the in vitro studies. […] It was also observed that the synthesized molecules enhanced chemotherapeutic drug sensitivity in a dose dependent manner. Therefore, further analysis was performed to examine the synergistic effects of the derived APN inhibitors and chemotherapeutic drugs.
(§3) Then, 10μL of MTT solution (5 mg/mL) were added to each well. After incubation for 4h, the medium was carefully removed, and 100 μL DMSO was added to each well and fully dissolved in vibration for 10min. The optical density (OD) at 490 nm and 630 nm were measured with a microplate Spectrophotometer (M5, MD). IC50 values were obtained from at least 3 independent experiments.
On the technique in general: Tetrazolium assays rely on reduction of a dye to a coloured formazan, in cell work by metabolically active cells.

Assay [6] deals with MDA-MB-468 cells. The assay is described as above. In kind it is cell-based, human. To be noted: for antiproliferative activity of chemotherapeutic drugs in combination with APN inhibitor: with PTX, EPB, CTX, CBP, 48 h.
Source text: as §2, §3

For assay [7], the system named is luciferase-expressing MDA-MB-231 cells. Briefly: In vivo anticancer study, xenograft model in female nude mice. To be noted: 20 mg/kg/d APN inhibitor + 10 mg/kg/3 days PTX; 3 weeks; n = 4. The procedure:
To evaluate the in vivo anticancer potency of the combination of PTX-APN inhibitor, cancer xenograft model was established by inoculation of luciferase- expressing MDA-MB-231 cells to female nude mice. About 1×10^7 MDA-MB-231 cells were injected subcutaneously into the right fat pad of the fourth mammary gland of the mice. […] Significant tumor size variations were observed among different groups ( Figures 5A, B ). […] Moreover, no clear signs of toxicity in liver and spleen were detected in the sacrificed mice.
Female Nude mice aged 3 weeks were purchased from Hunan SJA Experimental Animal Company and raised under SPF aseptic conditions. About 1×10^7 luciferase overexpressing MDA-MB-231 cells were injected subcutaneously into the right fat pad of the fourth mammary gland of each mouse. […] PBS group animals received PBS via intraperitoneal injection, while 10 mg/kg/3 days of PTX was administered to animals in the PTX group. […] After 3 weeks of administration, each mouse was intraperitoneally injected with 200uL of fluorescein substrate (d-fluorescein potassium salt, 150mg/kg), and then anesthetized with isoflurane. In vivo fluorescence imaging system (IVIS Spectrum, PerkinElmer) and SlideBook4.0 software were utilized for the result analysis. After the imaging analysis, mice were sacrificed and dissected for the detection of tumor size and calculation of liver/spleen indexes. All animal experiments were approved by the Animal Care and Use Committee of Weifang Medical University.

Assay [8] deals with MDA-MB-231 cells. Briefly: Apoptosis analysis (Annexin V-FITC/PI). Type of assay: cell-based, human. To be noted: 48 h. The procedure:
(§4) Moreover, APN inhibitor-induced chemo-sensitization had been frequently reported for PTX ([17], [29]). Therefore, the combination of PTX-APN inhibitor was selected in the subsequent studies.
(§5) The cells were seeded in 6-well plates (3 × 10^5 cells/well) and treated with various compounds for 48 h. Then, cells were collected and washed twice with cold PBS. Annexin V-FITC staining solution was then added to the cells, and cells were incubated at 2-8°C for 15 minutes under dark conditions. Then, PI staining solution was added by gentle mix at 2-8°C. After 5 minutes of incubation under dark conditions, cells were tested with flow cytometry immediately.

Assay [9] has as its system MDA-MB-468 cells. As to the kind of experiment: Apoptosis analysis (Annexin V-FITC/PI). In kind it is cell-based, human. To be noted: 48 h. On the procedure: as §4, §5
Assay [10] has as its system MDA-MB-231 cells. Briefly: Colony-formation assay. In kind it is cell-based, human. To be noted: 0.2 nM PTX + 1 µM APN inhibitor, 14 days. The procedure:
(§6) Cancer stem cells (CSCs) play an important role in the resistance of cancer cells to chemotherapeutic drugs. APN has been reported to be a therapeutic target in human cancer stem cells ([18]). Therefore, the CSC based test was performed in the present study. Colony-formation assay and spheroid-formation assay are two commonly used methods to assess the capacity of CSCs in vitro. In the spheroid-formation assay, MDA-MB-231 and MDA-MB-468 cells were dispersed into single cells, inoculated into low-adherence 6-well plates, and added with stem cell sphere medium. The stem cell spheres became visible after 5-6 days incubation. […] It is known that mRNA levels of the stem cell biomarkers OCT-4, SOX-2 and Nanog are associated with the characteristics of TNBC stem cells ([30]). Therefore, RT-PCR was performed on the TNBC cells to detect the mRNA levels of these markers.
(§7) 3000 cells were suspended in 2 mL medium, and seeded into the wells of six-well plate. After 12 hours of incubation, cells were treated with various compounds. Until each colony had more than 50 cells, this experiment terminated. Cells were washed twice with PBS and fixed with methanol for 10minutes. Then cells were stained with 1% crystal violet for 5minutes. Finally, colonies were washed and pictures were taken under a microscope (IX81, Olympus).

The test system of assay [11] is MDA-MB-468 cells. Briefly: Colony-formation assay. In kind it is cell-based, human. To be noted: 0.2 nM PTX + 1 µM APN inhibitor, 14 days. The procedure:
as §6, §7

The target in assay [12] is Aminopeptidase N (APN, CD13) (Homo sapiens, UniProt P15144). Briefly: APN enzyme inhibitory assay, supernatant of K562-CD13 cells as enzyme source, L-leucine-p-nitro anilide substrate.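 As to all read-outs here: substrate L-leucine-p-nitro anilide used at 1.6 mM, with enzyme from sonicated APN-overexpressing K562 cell lysate supernatant, run in 96-well plates.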 To be noted: for inhibition at 30 µM: read-out: Inhibitory rate (%).
Protocol: In the enzyme inhibitory assay, K562-CD13 monoclonal cells were used as APN enzyme source as described in our previous work ([27]).
K562 cells with overexpression of APN were added into PBS for ultrasonic crushing, centrifuged for 10 minutes, and supernatant was taken as enzyme source and added into 96-well plate. Different concentrations of compounds were added subsequently, and 1.6 mM L-leucine-p-nitro anilide was used as substrate. After 30 minutes of reaction, the APN enzyme activity was measured at 405 nm absorbance. The inhibition rate of APN activity was analyzed by the formula (Od control OD tested)/Od control 100%.
For assay [13], the system named is MDA-MB-231 cells. As to the kind of experiment: Spheroid-formation assay. In kind it is cell-based, human. To be noted: 1 nM PTX + 1 µM APN inhibitor, 7 days. The procedure: as §6
(§8) MDA-MB-231 cells and MDA-MB-468 cells in logarithmic growth phase were collected, stem cell sphere culture medium without serum (containing 50X B-27Supplement,100X N-2 Supplement,20 μg/L epidermal growth factor (EGF), 20µg/L insulin-like growth factor (IGF-1), 10 μg/L fibroblast growth factor (b-FGF), 20X Knock Out SR, 2mM L-Glutamine, 5mg/L Heparin sodium, 1X PENICILLIN-STREPTOMYCIN and DMEM: F12 (1:1) medium was added for the re-suspension and fully blown into single-cell suspension. The cells were diluted to 5,000/2 mL, with stem cell sphere culture medium, and cultured in a 37°C, 5% CO2 cell incubator. The number of stem cell spheres were observed every day. […]

Assay [14] deals with MDA-MB-468 cells. Briefly: Spheroid-formation assay. Type of assay: cell-based, human. To be noted: 1 nM PTX + 1 µM APN inhibitor, 7 days. The procedure: as §6, §8

Sequence of Aminopeptidase N (APN, CD13) (P15144 whole entry): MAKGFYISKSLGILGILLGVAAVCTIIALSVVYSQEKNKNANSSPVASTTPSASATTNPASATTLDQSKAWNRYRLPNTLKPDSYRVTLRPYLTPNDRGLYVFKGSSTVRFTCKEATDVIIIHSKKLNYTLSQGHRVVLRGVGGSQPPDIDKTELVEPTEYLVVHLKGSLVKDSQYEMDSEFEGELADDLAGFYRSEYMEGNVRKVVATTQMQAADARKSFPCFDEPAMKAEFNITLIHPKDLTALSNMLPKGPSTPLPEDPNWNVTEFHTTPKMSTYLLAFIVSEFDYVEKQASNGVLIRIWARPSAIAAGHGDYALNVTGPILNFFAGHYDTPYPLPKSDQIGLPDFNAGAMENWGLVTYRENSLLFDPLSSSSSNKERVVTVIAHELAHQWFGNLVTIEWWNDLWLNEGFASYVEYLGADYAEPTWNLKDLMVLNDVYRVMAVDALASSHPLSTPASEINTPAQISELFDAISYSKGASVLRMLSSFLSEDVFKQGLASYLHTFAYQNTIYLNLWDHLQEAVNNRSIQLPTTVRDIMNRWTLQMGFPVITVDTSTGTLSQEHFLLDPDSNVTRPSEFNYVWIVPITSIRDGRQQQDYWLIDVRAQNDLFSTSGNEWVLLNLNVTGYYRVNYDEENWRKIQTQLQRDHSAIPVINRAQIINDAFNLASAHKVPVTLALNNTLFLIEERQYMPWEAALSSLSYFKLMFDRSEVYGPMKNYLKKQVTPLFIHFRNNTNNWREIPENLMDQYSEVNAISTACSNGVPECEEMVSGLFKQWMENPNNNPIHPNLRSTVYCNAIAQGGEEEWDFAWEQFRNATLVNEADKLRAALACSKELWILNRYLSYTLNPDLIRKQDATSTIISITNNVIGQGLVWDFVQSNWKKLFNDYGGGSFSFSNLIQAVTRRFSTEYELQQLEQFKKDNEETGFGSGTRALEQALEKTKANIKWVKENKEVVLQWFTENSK

Take `CC(=O)O[C@H]1C(=O)[C@@]2(C)[C@H]([C@H](OC(=O)c3ccccc3)[C@]3(O)C[C@H](OC(=O)[C@H](O)[C@@H](NC(=O)c4ccccc4)c4ccccc4)C(C)=C1C3(C)C)[C@]1(OC(C)=O)CO[C@@H]1C[C@@H]2O` [PTX, Paclitaxel, reference compound]: the “APN expression relative to untreated control” value in assay [1] (PTX alone) and in assay [2] (PTX alone) was “up-regulated APN expression” in each case. For the same compound, the “ROS levels compared to control group” value in the assay with MDA-MB-231 cells [3] and in the assay with MDA-MB-468 cells [4] was “increased ROS levels” throughout. The “inhibitory potency among the tested chemotherapeutic drugs” value in the assay on MDA-MB-231 cells [5] (chemotherapeutic drug) and with MDA-MB-468 cells [6] (chemotherapeutic drug) was “highest inhibitory potency” throughout.

`Cc1ccccc1C(=O)N1CCc2c(n(CC(=O)NO)c3ccccc23)C1` [Compound D16, N-hydroxy-2-(2-(2-methylbenzoyl)-1,2,3,4-tetrahydro-9H-pyrido[3,4-b]indol-9-yl)acetamide]: the “APN expression, combination with PTX compared with paclitaxel alone” value in assay [1] and in assay [2] was “decreased APN expression” throughout. The “anticancer effect of PTX (tumor weight) compared with single PTX administration group” value in assay [7] is on record as “improved the anticancer effect of PTX”. Further, the “inhibitory rate (tumor), in combination with PTX” value (shortened to “inhibitory rate (tumor)”) in [7] turned out to be 14.15%. Also, the “apoptotic rate in combination with PTX, compared with Bestatin” value (shortened to “apoptotic rate … compared with Bestatin”) with MDA-MB-231 cells [8] and in the assay with MDA-MB-468 cells [9] was “higher apoptotic rate” in each case. Also, the “colony formation, compared with control and single PTX” value in the assay with MDA-MB-231 cells [10] is “decreased the tumor sphere and colony formation abilities”; with MDA-MB-468 cells [11] it was “decreased the tumor sphere and colony formation abilities”. Moreover, the IC50 in assay [12] turned out to be 7.9 ± 0.27 µM. Also, the inhibition at 30 µM in assay [12] was determined as 74.5 ± 4.66%. Also, the “number of tumor spheres formed, compared with control and PTX alone” value (shortened to “number … compared with control and PTX alone”) with MDA-MB-231 cells [13] and in the assay with MDA-MB-468 cells [14] was “significant decrease in the number of tumor spheres” in each case. For the same compound, the “antiproliferative activity of chemotherapeutic drugs in combination with APN inhibitor” value (“antiproliferative activity … with APN inhibitor” below) in the assay with MDA-MB-231 cells [5] and with MDA-MB-468 cells [6] was “synergistically improved the antiproliferative activity of chemotherapeutic drugs” in each case.

Take `O=C(Cn1c2c(c3ccccc31)CCN(C(=O)c1cccc(F)c1)C2)NO` [Compound D12, 2-(2-(3-fluorobenzoyl)-1,2,3,4-tetrahydro-9H-pyrido[3,4-b]indol-9-yl)-N-hydroxyacetamide]: the “APN expression, combination with PTX compared with paclitaxel alone” value in assay [1] and in assay [2] was “decreased APN expression” each time. Also, the “anticancer effect of PTX (tumor weight) compared with single PTX administration group” value in assay [7] is given as “improved the anticancer effect of PTX”. Moreover, the “inhibitory rate (tumor)” value in assay [7] came to 54.02%. Further, the “apoptotic rate … compared with Bestatin” value in the assay on MDA-MB-231 cells [8] and with MDA-MB-468 cells [9] was “higher apoptotic rate” throughout. Moreover, the “colony formation, compared with control and single PTX” value with MDA-MB-231 cells [10] was “decreased the tumor sphere and colony formation abilities”; in the assay on MDA-MB-468 cells [11], “decreased the tumor sphere and colony formation abilities”. For the same compound, the IC50 in assay [12] worked out at 8.92 ± 0.38 µM. Besides, the inhibition at 30 µM in [12] worked out at 74.9 ± 4.35%. In addition, the “number … compared with control and PTX alone” value in the assay with MDA-MB-231 cells [13] and with MDA-MB-468 cells [14] was “significant decrease in the number of tumor spheres” in each case. The “antiproliferative activity … with APN inhibitor” value in the assay with MDA-MB-231 cells [5] and with MDA-MB-468 cells [6] was “synergistically improved the antiproliferative activity of chemotherapeutic drugs” throughout.

As for `O=C(Cn1c2c(c3ccccc31)CCN(C(=O)c1ccccc1F)C2)NO` [Compound D14, 2-(2-(2-fluorobenzoyl)-1,2,3,4-tetrahydro-9H-pyrido[3,4-b]indol-9-yl)-N-hydroxyacetamide], the “APN expression, combination with PTX compared with paclitaxel alone” value in assay [1] and in assay [2] was “decreased APN expression” each time. Moreover, the “anticancer effect of PTX (tumor weight) compared with single PTX administration group” value in [7] is reported as “improved the anticancer effect of PTX”. In addition, the “inhibitory rate (tumor)” value in assay [7] is 31.32%. In addition, the “apoptotic rate … compared with Bestatin” value in the assay on MDA-MB-231 cells [8] and in the assay on MDA-MB-468 cells [9] was “higher apoptotic rate” in each case. For the same compound, the “colony formation, compared with control and single PTX” value in the assay on MDA-MB-231 cells [10] was “decreased the tumor sphere and colony formation abilities”; in the assay on MDA-MB-468 cells [11], “decreased the tumor sphere and colony formation abilities”. Besides, the IC50 in assay [12] stood at 7.74 ± 0.33 µM. The inhibition at 30 µM in assay [12] turned out to be 74.3 ± 6.16%. Besides, the “number … compared with control and PTX alone” value in the assay on MDA-MB-231 cells [13] and with MDA-MB-468 cells [14] was “significant decrease in the number of tumor spheres” throughout. Also, the “antiproliferative activity … with APN inhibitor” value in the assay on MDA-MB-231 cells [5] and in the assay on MDA-MB-468 cells [6] was “synergistically improved the antiproliferative activity of chemotherapeutic drugs” throughout.
